Consider five molecules from the supplement of paper PMC10307832.

The structures appear in SMILES notation.

The first assay relates to COR-L 105. As to the kind of experiment: relative viability (nuclei count vs DMSO), 5 days (fraction); higher = more cells survive. To be noted: first compound 8 µM. In outline: (§1)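 Relative viability equals treated-well nuclei counts divided by vehicle-well nuclei counts. Counts came from 4× images of lung cancer cell lines grown in 1536-well plates for 5 days after pin-tool dosing on the day after seeding. Dosing used one drug alone or a fixed anchor-drug dose plus five library-drug doses (not always all listed) in √10 steps, and values are medians of duplicate plates.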
`CCCCCCCCCCCC1=C(O)C(=O)C=C(O)C1=O` [Embelin] + COc1cccc2cc(-c3nc([C@H]4CC[C@H](C(=O)O)CC4)n4ncnc(N)c34)[nH]c12 [OSI-027] (partner 0.5 µM) had a relative viability of 0.621.
The same measure, in the same setting: to `CCCCCCCCCCCC1=C(O)C(=O)C=C(O)C1=O` [Embelin] + Nc1nc2[nH]cc(CCc3ccc(C(=O)N[C@@H](CCC(=O)O)C(=O)O)cc3)c2c(=O)[nH]1 [Pemetrexed] (partner 0.2 µM) belongs 1.08.

A further assay concerns HARA. Described as above. To be noted: first compound 0.08 µM. In outline:
as §1
Molecule `CCCCCCCCCCCC1=C(O)C(=O)C=C(O)C1=O` [Embelin] + CCNC(=O)c1noc(-c2cc(C(C)C)c(O)cc2O)c1-c1ccc(CN2CCOCC2)cc1 [Luminespib] (partner 0.01 µM) registered a relative viability of 0.832.
Same read-out and setting: the value for `CCCCCCCCCCCC1=C(O)C(=O)C=C(O)C1=O` [Embelin] + Cc1nc(Nc2ncc(C(=O)Nc3c(C)cccc3Cl)s2)cc(N2CCN(CCO)CC2)n1 [Dasatinib] (partner 0.075 µM) was 0.25.
Still for that read-out and setting: the value for `CCCCCCCCCCCC1=C(O)C(=O)C=C(O)C1=O` [Embelin] + CC(=O)c1c(C)c2cnc(Nc3ccc(N4CCNCC4)cn3)nc2n(C2CCCC2)c1=O [Palbociclib] (partner 0.5 µM) was 0.269.
The same measure, in the same setting: to `CCCCCCCCCCCC1=C(O)C(=O)C=C(O)C1=O` [Embelin] + COc1cccc2cc(-c3nc([C@H]4CC[C@H](C(=O)O)CC4)n4ncnc(N)c34)[nH]c12 [OSI-027] (partner 0.5 µM) belongs 0.5.
As for `CCCCCCCCCCCC1=C(O)C(=O)C=C(O)C1=O` [Embelin] + Nc1nc2[nH]cc(CCc3ccc(C(=O)N[C@@H](CCC(=O)O)C(=O)O)cc3)c2c(=O)[nH]1 [Pemetrexed] (partner 0.2 µM), the relative viability amounted to 0.292.

Staying with this assay, now noted: first compound 0.8 µM.
On to `CCCCCCCCCCCC1=C(O)C(=O)C=C(O)C1=O` [Embelin] + CCNC(=O)c1noc(-c2cc(C(C)C)c(O)cc2O)c1-c1ccc(CN2CCOCC2)cc1 [Luminespib] (partner 0.01 µM), for which the relative viability turned out to be 0.919.
The molecule `CCCCCCCCCCCC1=C(O)C(=O)C=C(O)C1=O` [Embelin] + Cc1nc(Nc2ncc(C(=O)Nc3c(C)cccc3Cl)s2)cc(N2CCN(CCO)CC2)n1 [Dasatinib] (partner 0.075 µM) showed a relative viability of 0.329.
Same read-out and setting: the value for `CCCCCCCCCCCC1=C(O)C(=O)C=C(O)C1=O` [Embelin] + CC(=O)c1c(C)c2cnc(Nc3ccc(N4CCNCC4)cn3)nc2n(C2CCCC2)c1=O [Palbociclib] (partner 0.5 µM) was 0.324; that for `CCCCCCCCCCCC1=C(O)C(=O)C=C(O)C1=O` [Embelin] + COc1cccc2cc(-c3nc([C@H]4CC[C@H](C(=O)O)CC4)n4ncnc(N)c34)[nH]c12 [OSI-027] (partner 0.5 µM) was 0.701.
Regarding `CCCCCCCCCCCC1=C(O)C(=O)C=C(O)C1=O` [Embelin] + Nc1nc2[nH]cc(CCc3ccc(C(=O)N[C@@H](CCC(=O)O)C(=O)O)cc3)c2c(=O)[nH]1 [Pemetrexed] (partner 0.2 µM), the relative viability came to 0.279.

Staying with this assay, now noted: first compound 2.53 µM.
`CCCCCCCCCCCC1=C(O)C(=O)C=C(O)C1=O` [Embelin] + CCNC(=O)c1noc(-c2cc(C(C)C)c(O)cc2O)c1-c1ccc(CN2CCOCC2)cc1 [Luminespib] (partner 0.01 µM) returned a relative viability of 0.987.
On the same count and under the same terms, the value for `CCCCCCCCCCCC1=C(O)C(=O)C=C(O)C1=O` [Embelin] + Cc1nc(Nc2ncc(C(=O)Nc3c(C)cccc3Cl)s2)cc(N2CCN(CCO)CC2)n1 [Dasatinib] (partner 0.075 µM) was 0.279; that for `CCCCCCCCCCCC1=C(O)C(=O)C=C(O)C1=O` [Embelin] + CC(=O)c1c(C)c2cnc(Nc3ccc(N4CCNCC4)cn3)nc2n(C2CCCC2)c1=O [Palbociclib] (partner 0.5 µM) was 0.301.
The molecule `CCCCCCCCCCCC1=C(O)C(=O)C=C(O)C1=O` [Embelin] + COc1cccc2cc(-c3nc([C@H]4CC[C@H](C(=O)O)CC4)n4ncnc(N)c34)[nH]c12 [OSI-027] (partner 0.5 µM) displayed a relative viability of 0.601.
Regarding `CCCCCCCCCCCC1=C(O)C(=O)C=C(O)C1=O` [Embelin] + Nc1nc2[nH]cc(CCc3ccc(C(=O)N[C@@H](CCC(=O)O)C(=O)O)cc3)c2c(=O)[nH]1 [Pemetrexed] (partner 0.2 µM), the relative viability is 0.256.

The same assay, now with this note: first compound 8 µM.
On to `CCCCCCCCCCCC1=C(O)C(=O)C=C(O)C1=O` [Embelin] + CCNC(=O)c1noc(-c2cc(C(C)C)c(O)cc2O)c1-c1ccc(CN2CCOCC2)cc1 [Luminespib] (partner 0.01 µM), for which the relative viability turned out to be 0.821.
For `CCCCCCCCCCCC1=C(O)C(=O)C=C(O)C1=O` [Embelin] + Cc1nc(Nc2ncc(C(=O)Nc3c(C)cccc3Cl)s2)cc(N2CCN(CCO)CC2)n1 [Dasatinib] (partner 0.075 µM), the relative viability is 0.272.
Molecule `CCCCCCCCCCCC1=C(O)C(=O)C=C(O)C1=O` [Embelin] + CC(=O)c1c(C)c2cnc(Nc3ccc(N4CCNCC4)cn3)nc2n(C2CCCC2)c1=O [Palbociclib] (partner 0.5 µM) registered a relative viability of 0.32.
Consider `CCCCCCCCCCCC1=C(O)C(=O)C=C(O)C1=O` [Embelin] + COc1cccc2cc(-c3nc([C@H]4CC[C@H](C(=O)O)CC4)n4ncnc(N)c34)[nH]c12 [OSI-027] (partner 0.5 µM), for which the relative viability came to 0.526.
As for `CCCCCCCCCCCC1=C(O)C(=O)C=C(O)C1=O` [Embelin] + Nc1nc2[nH]cc(CCc3ccc(C(=O)N[C@@H](CCC(=O)O)C(=O)O)cc3)c2c(=O)[nH]1 [Pemetrexed] (partner 0.2 µM), the relative viability was 0.208.

The next assay concerns LCLC-103H. The assay is described as above. To be noted: first compound 0.08 µM. In outline:
as §1
`CCCCCCCCCCCC1=C(O)C(=O)C=C(O)C1=O` [Embelin] + CCNC(=O)c1noc(-c2cc(C(C)C)c(O)cc2O)c1-c1ccc(CN2CCOCC2)cc1 [Luminespib] (partner 0.01 µM) had a relative viability of 1.
On the same count and under the same terms, to `CCCCCCCCCCCC1=C(O)C(=O)C=C(O)C1=O` [Embelin] + Cc1nc(Nc2ncc(C(=O)Nc3c(C)cccc3Cl)s2)cc(N2CCN(CCO)CC2)n1 [Dasatinib] (partner 0.075 µM) belongs 0.453; to `CCCCCCCCCCCC1=C(O)C(=O)C=C(O)C1=O` [Embelin] + CC(=O)c1c(C)c2cnc(Nc3ccc(N4CCNCC4)cn3)nc2n(C2CCCC2)c1=O [Palbociclib] (partner 0.5 µM), 0.496.
Molecule `CCCCCCCCCCCC1=C(O)C(=O)C=C(O)C1=O` [Embelin] + COc1cccc2cc(-c3nc([C@H]4CC[C@H](C(=O)O)CC4)n4ncnc(N)c34)[nH]c12 [OSI-027] (partner 0.5 µM) returned a relative viability of 0.467.
As to `CCCCCCCCCCCC1=C(O)C(=O)C=C(O)C1=O` [Embelin] + Nc1nc2[nH]cc(CCc3ccc(C(=O)N[C@@H](CCC(=O)O)C(=O)O)cc3)c2c(=O)[nH]1 [Pemetrexed] (partner 0.2 µM), the relative viability was found to be 0.49.

Still in this assay, the particulars now being: first compound 0.8 µM.
As for `CCCCCCCCCCCC1=C(O)C(=O)C=C(O)C1=O` [Embelin] + CCNC(=O)c1noc(-c2cc(C(C)C)c(O)cc2O)c1-c1ccc(CN2CCOCC2)cc1 [Luminespib] (partner 0.01 µM), the relative viability was 1.03.
On the same count and under the same terms, to `CCCCCCCCCCCC1=C(O)C(=O)C=C(O)C1=O` [Embelin] + Cc1nc(Nc2ncc(C(=O)Nc3c(C)cccc3Cl)s2)cc(N2CCN(CCO)CC2)n1 [Dasatinib] (partner 0.075 µM) belongs 0.517; to `CCCCCCCCCCCC1=C(O)C(=O)C=C(O)C1=O` [Embelin] + CC(=O)c1c(C)c2cnc(Nc3ccc(N4CCNCC4)cn3)nc2n(C2CCCC2)c1=O [Palbociclib] (partner 0.5 µM), 0.459.
`CCCCCCCCCCCC1=C(O)C(=O)C=C(O)C1=O` [Embelin] + COc1cccc2cc(-c3nc([C@H]4CC[C@H](C(=O)O)CC4)n4ncnc(N)c34)[nH]c12 [OSI-027] (partner 0.5 µM) returned a relative viability of 0.492.
Still for that read-out and setting: the value for `CCCCCCCCCCCC1=C(O)C(=O)C=C(O)C1=O` [Embelin] + Nc1nc2[nH]cc(CCc3ccc(C(=O)N[C@@H](CCC(=O)O)C(=O)O)cc3)c2c(=O)[nH]1 [Pemetrexed] (partner 0.2 µM) was 0.485.
